Measurements from publication PMC11997307, “Rat Sarcoma (RAS)-Protein-Targeting Synthetic Cell-Penetrating Peptide as an Anticancer Biomaterial” (Biomaterials Research, 2025).

Legend:
[1] = test system: MDA-MB-231 cell-derived tumors; test: Mouse xenograft tumor model; assay type: in vivo; settings: BALB/c nude mice, MDA-MB-231 xenograft
Method: Female BALB/c nude mice (aged 5 to 6 weeks) were utilized in these studies to establish breast cancer xenograft models. These mice were obtained from Orient Bio, Inc. (Seongnam, Republic of Korea) and maintained in the Division of Laboratory Animal Resources animal facility throughout the experimental period. The selection, management, and experimental protocols, as well as the preparation of the animals, were conducted in accordance with the guidelines approved by the Institutional Animal Care and Use Committee of Seoul National University. All experiments adhered to the animal protocol approved by the Institutional Animal Care and Use Committee at Seoul National University (protocol number: SNU-171026-1-5). MDA-MB-231 cells were cultured until they reached 80% to 90% confluency and then harvested and prepared as suspensions (3 × 10^6 cells/100 μl in PBS) mixed with Matrigel. These cell suspensions were injected into the right hind flanks of nude mice (n = 8). […] The control mice received PBS injections. The mice were weighed, and their tumor volumes were measured 3 times per week using Vernier calipers, starting on the first day of treatment. The tumor volume was calculated using the formula tumor volume = A × B^2 × 0.52, where A represents the longest tumor diameter and B represents the shortest diameter. After 6 weeks, the mice were euthanized in a sealed chamber with CO2 gas for 5 to 10 min, and their solid tumors were harvested and fixed in 4% paraformaldehyde for subsequent analysis via immunohistochemistry (IHC).
The tissues were fixed in 4% formalin before being embedded in paraffin. Sections with a thickness of 4 μm were deparaffinized with xylene and then rehydrated with a graded series of ethanol solutions, ranging from 95% to 100%. […] Antibody binding was detected through incubation with EnVision FLEX/horseradish peroxidase (Dako) for 30 min. […] The intensity and distribution of Ki-67-specific immunostaining were assessed using a Leica DM6B digital light fluorescence microscope following hematoxylin counterstaining.

MDA-MB-231 cells = test: Transwell migration assay; assay type: cell-based, human; settings: MDA-MB-231, Transwell 8-μm pore, 200 μM RBP, 6 h
Method: To assess MDA-MB-231 cell migration, 2 methods were employed: a Transwell migration assay and a scratch assay. For the Transwell migration assay, 24-well Transwell plates (8-μm pore size; Costar, Corning Incorporated, Corning, NY, USA) were used to evaluate the invasive potential of the cells. […] Following a 6-h incubation period, nonmigratory cells were carefully removed from the upper surface of the membrane using a PBS-soaked cotton swab. The cells that successfully migrated through the membrane were fixed in methanol for 10 min, and Giemsa staining was used to visualize them. Images were captured using an Olympus DP72 camera at ×100 magnification, and the number of migrated cells in the treated samples was compared with that in the control samples. For the scratch assay, MDA-MB-231 cells (1 × 10^6 cells) were cultured in 6-well plates until they reached confluence. The cells were rinsed with PBS and incubated overnight in serum-free medium. A sterile 200-μl plastic pipette tip was used to create a linear scratch in the center of the monolayer. […] Images were taken immediately after scratching and again after 6, 24, 48, and 72 h of incubation using an Olympus CKX41 inverted microscope at ×20 magnification to evaluate the distance the cells migrated from the wound edge.

HCT-116 cells = test: Cell viability, CCK-8 assay, HCT-116; assay type: cell-based, human; settings: HCT-116 (KRAS G13D), CCK-8, 0-1,000 μM RBP, 24, 48 or 72 h, triplicate
Method: The viability of the cells was determined via Cell Counting Kit-8 (CCK-8; Dojindo Laboratories, Kumamoto, Japan) assay. The cells were plated in 96-well culture plates at a density of 5 × 10^3 cells per well and incubated for 24 h at 37 °C in a humidified incubator with 5% CO2. […] After incubation, the medium was replaced with fresh medium containing 10% (v/v) CCK-8 reagent, and the cells were incubated for 2 h. Absorbance was measured at 450 nm using a microplate reader. All experiments were performed in triplicate.

[2] = 10 mg/kg intraperitoneal, 6 weeks

Structure (SMILES): C[C@@H](O)[C@H](NC(=O)[C@H](CO)NC(=O)[C@H](CS)NC(=O)[C@H](CCCCN)NC(=O)CN)C(=O)N[C@@H](CCCNC(=N)N)C(=O)NCC(=O)N[C@@H](CCCNC(=N)N)C(=O)N[C@@H](CCCCN)C(=O)N[C@@H](CS)C(=O)N[C@@H](CS)C(=O)N[C@@H](CCCNC(=N)N)C(=O)N[C@@H](CCCNC(=N)N)C(=O)N[C@@H](CCCCN)C(=O)N[C@@H](CCCCN)C(N)=O [RBP]
- tumor growth vs not-treated group ([1]; 10 mg/kg intraperitoneal 3 times per week for 6 weeks, n = 8, P < 0.05): significant reduction
- Ki-67 expression in tumor sections (IHC) [1, 2]: decreased Ki-67 expression
- immune cell infiltration in tumors (H&E) [1, 2]: increased immune cell infiltration
- reduction of cell invasion vs NT group (MDA-MB-231 cells): 70%
- percentage of viable cells (HCT-116 cells): reduced the percentage of viable KRAS G13D mutant cells in a dose-dependent manner
